Among the test systems are SK-MEL-28 melanoma; NCI-H522 lung; SW-620 colon; SK-OV-3 ovarian; LOX IMVI melanoma; HOP-92 NSCLC; SN12C renal; K-562 leukemia; MALME-3M melanoma; OVCAR-4 ovarian.
Assay in all cases: NCI tumour cell line growth inhibition, 48 h

Where “and” joins values, the source holds several entries; their conditions need not be identical. Identical values can stand only once.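 Values below derive from 48-hour exposures of cells grown in 96-well plates, with endpoints linearly interpolated between the two concentrations bracketing the appropriate inhibition level. Here, GI50 denotes the concentration required for 50% inhibition of growth. Definition used: TGI = concentration required for complete inhibition of growth.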

Consider `C=C(C)C1CCC2(C(=O)O)CCC3(C)C(CCC4C5(C)CCC(O)C(C)(C)C5CCC43C)C12` (stereo not drawn), for which the TGI with SK-MEL-28 melanoma was found to be 41.8 µM; in the assay with NCI-H522 lung, 18.2 µM; in the assay with SW-620 colon, 51.5 µM; with SK-OV-3 ovarian, 34.2 µM; in the assay on LOX IMVI melanoma, 52.8 µM; in the assay on HOP-92 NSCLC it was 12.4 µM. Also, the TGI in the assay with SN12C renal is 26.1 µM; in the assay on K-562 leukemia, 27.3 µM; in the assay on MALME-3M melanoma it was 27.9 µM; in the assay with OVCAR-4 ovarian, 14.7 µM.

For `Cc1cc(Cl)ccc1Nc1nc2c(s1)C(=O)c1ccccc1C2=O`, the TGI with SK-MEL-28 melanoma is 4.14 µM; in the assay on NCI-H522 lung it was 4.08 µM; in the assay on SW-620 colon it was 4.01 µM; in the assay on SK-OV-3 ovarian, 26.1 µM; in the assay with LOX IMVI melanoma it was 3.12 µM; in the assay on HOP-92 NSCLC, 27.2 µM. Also, the TGI is 3.33 µM in the assay with SN12C renal, > 23.3 µM in the assay on K-562 leukemia, 2.92 µM with MALME-3M melanoma and 9.41 µM in the assay with OVCAR-4 ovarian.

As for `O=C(c1ccccc1)c1c2n(c3c1cc(O)c1ccccc13)CCN2`, the GI50 with SK-MEL-28 melanoma was 12.1 µM; with NCI-H522 lung, 1960 nM; in the assay on SW-620 colon it was 3470 nM; with SK-OV-3 ovarian it was 11.1 µM; in the assay on LOX IMVI melanoma, 2700 nM; with HOP-92 NSCLC, 2630 nM. In addition, the GI50 with SN12C renal was 2 µM; in the assay on K-562 leukemia, 2560 nM; in the assay with MALME-3M melanoma, 1970 nM; with OVCAR-4 ovarian it was 1.53 µM. Besides, the TGI in the assay on SK-MEL-28 melanoma came to 27.3 µM; in the assay on NCI-H522 lung, 4.03 µM; in the assay with SW-620 colon it was 14.8 µM; in the assay with SK-OV-3 ovarian, 25.2 µM; in the assay with LOX IMVI melanoma, 6.87 µM; with HOP-92 NSCLC, 9.36 µM. Moreover, the TGI with SN12C renal was 4.21 µM; with K-562 leukemia, 8.2 µM; in the assay with MALME-3M melanoma it was 4.19 µM; with OVCAR-4 ovarian, 2.86 µM.

Take `CCOC(=O)CP(=S)(S)c1ccccc1` (stereo not drawn): the TGI in the assay on SK-MEL-28 melanoma, in the assay on NCI-H522 lung, in the assay on SW-620 colon, in the assay with SK-OV-3 ovarian, in the assay with LOX IMVI melanoma and in the assay with HOP-92 NSCLC was > 100 µM in each case. Also, the TGI in the assay on SN12C renal, in the assay with K-562 leukemia, in the assay with MALME-3M melanoma and in the assay on OVCAR-4 ovarian was > 100 µM in each case.

For the compound `C1=CC(=NN=P(c2ccccc2)(c2ccccc2)c2ccccc2)C=C1`, the TGI in the assay on SK-MEL-28 melanoma, in the assay with NCI-H522 lung, in the assay with SW-620 colon, in the assay with SK-OV-3 ovarian, in the assay with LOX IMVI melanoma and in the assay with HOP-92 NSCLC was > 100 µM in each case. For the same compound, the TGI in the assay on SN12C renal, with K-562 leukemia, in the assay on MALME-3M melanoma and in the assay with OVCAR-4 ovarian was > 100 µM throughout.

For `COc1cccc(/C=C2\CCc3ccccc3C2=O)c1`, the GI50 in the assay on SK-MEL-28 melanoma is 15.5 µM; in the assay with NCI-H522 lung it was 4090 nM; in the assay with SW-620 colon it was 3700 nM; with SK-OV-3 ovarian, 20.7 µM; in the assay with LOX IMVI melanoma it was 12900 nM; in the assay on HOP-92 NSCLC, 13300 nM. The GI50 with SN12C renal was 15.8 µM; with K-562 leukemia, 3290 nM; in the assay with MALME-3M melanoma, 12700 nM; with OVCAR-4 ovarian, 13.7 µM. Moreover, the TGI with SK-MEL-28 melanoma was 31 µM; in the assay on NCI-H522 lung, 22.3 µM; in the assay on SW-620 colon, 13.4 µM; in the assay on SK-OV-3 ovarian it was 75.6 µM; with LOX IMVI melanoma, 36.8 µM; in the assay on HOP-92 NSCLC it was 35.4 µM. In addition, the TGI in the assay on SN12C renal was 40.2 µM; in the assay with K-562 leukemia, 57.1 µM; in the assay on MALME-3M melanoma it was 29 µM; with OVCAR-4 ovarian, 54.5 µM.

Take `O=C(O)CCCc1cc2c(s1)-c1cccc3cccc-2c13`: the TGI in the assay with SK-MEL-28 melanoma is > 100 µM; in the assay with NCI-H522 lung it was 51.1 µM; in the assay on SW-620 colon it was > 100 µM; in the assay on SK-OV-3 ovarian it was 75.4 µM; with LOX IMVI melanoma, 52 µM; with HOP-92 NSCLC, 39 µM. Moreover, the TGI in the assay with SN12C renal is 80.4 µM; in the assay on K-562 leukemia, > 100 µM; in the assay with MALME-3M melanoma, > 100 µM; in the assay on OVCAR-4 ovarian, > 100 µM.

For `NCCCCCCCCCn1c2c(c3ccccc3c1=O)C(=O)c1ccccc1-2`, the GI50 is 9.98 µM in the assay on SK-MEL-28 melanoma; 8830 nM in the assay with NCI-H522 lung; 6110 nM with SW-620 colon; 10.1 µM in the assay on SK-OV-3 ovarian; 7380 nM with LOX IMVI melanoma; 10100 nM in the assay with HOP-92 NSCLC. Besides, the GI50 was 8.48 µM in the assay on SN12C renal, 7420 nM in the assay with K-562 leukemia, 9170 nM with MALME-3M melanoma and 10.3 µM in the assay on OVCAR-4 ovarian. Further, the TGI stood at 23 µM in the assay with SK-MEL-28 melanoma; 24.4 µM with NCI-H522 lung; 15.6 µM in the assay on SW-620 colon; 18.7 µM in the assay with SK-OV-3 ovarian; 23.6 µM in the assay with LOX IMVI melanoma; 21.1 µM in the assay with HOP-92 NSCLC. Moreover, the TGI with SN12C renal came out at 18.4 µM; in the assay with K-562 leukemia it was 32.3 µM; in the assay with MALME-3M melanoma it was 21.8 µM; in the assay on OVCAR-4 ovarian it was 25.9 µM.

As for `CCN(CC)CC(O)c1cc(-c2ccc(Cl)cc2)nc2cc(Cl)ccc12` (stereo not drawn), the GI50 in the assay on SK-MEL-28 melanoma is 1.76 µM; with NCI-H522 lung it was 1620 nM; with SW-620 colon it was 1730 nM; in the assay on SK-OV-3 ovarian, 3.44 µM; with LOX IMVI melanoma, 1240 nM; in the assay with HOP-92 NSCLC it was 1830 nM. In addition, the GI50 is 2.96 µM in the assay with SN12C renal, 1750 nM in the assay on K-562 leukemia, 1780 nM in the assay on MALME-3M melanoma and 3.3 µM in the assay on OVCAR-4 ovarian. Moreover, the TGI is 3.21 µM in the assay on SK-MEL-28 melanoma; 3.14 µM with NCI-H522 lung; 3.33 µM in the assay on SW-620 colon; 12 µM with SK-OV-3 ovarian; 2.51 µM in the assay with LOX IMVI melanoma; 7.38 µM with HOP-92 NSCLC. The TGI was found to be 12.7 µM with SN12C renal, 3.55 µM in the assay on K-562 leukemia, 3.62 µM in the assay on MALME-3M melanoma and 10.6 µM with OVCAR-4 ovarian.

In the case of `COC1C(C)OC(OC2CC(C)(O)Cc3cc4c(c(O)c32)C(=O)c2c(O)cc3c(c2C4=O)OC2OC3(C)C(O)C(N(C)C)C2O)C(OC)C1(C)OC` (stereo not drawn), the GI50 is 0.0687 µM and 0.0334 µM with SK-MEL-28 melanoma; 93 nM and 18.6 nM in the assay on NCI-H522 lung; 38 nM and 24 nM in the assay with SW-620 colon; 22.6 nM and 66.1 nM with LOX IMVI melanoma; 2.96 nM and 15.6 nM with HOP-92 NSCLC; 27.2 nM and 63.6 nM in the assay on K-562 leukemia. In the assay with MALME-3M melanoma, the GI50 was 17.8 nM. Moreover, the TGI in the assay on SW-620 colon was 2.84 µM and 2.41 µM; with SK-OV-3 ovarian it was 1.52 µM and 10.7 µM; in the assay on SN12C renal, 6.12 µM and 6.56 µM; with K-562 leukemia, 1.94 µM and 1.51 µM; in the assay with MALME-3M melanoma, 0.383 µM and 0.0944 µM; in the assay on OVCAR-4 ovarian, 1.61 µM.

As for `C=CNC(=S)n1nc(-c2ccccc2NC(=O)C(F)(F)F)c(=O)n(C(=S)NC=C)c1=S`, the TGI was > 100 µM in the assay with SK-MEL-28 melanoma; 60.5 µM in the assay on NCI-H522 lung; > 100 µM in the assay on SW-620 colon; 73 µM in the assay on SK-OV-3 ovarian; > 100 µM in the assay on LOX IMVI melanoma; 36.5 µM with HOP-92 NSCLC. For the same compound, the TGI in the assay with SN12C renal is > 100 µM; in the assay on K-562 leukemia it was > 100 µM; in the assay on MALME-3M melanoma, > 100 µM; with OVCAR-4 ovarian it was 19.6 µM.

Take `COc1cc2oc(-c3ccc(O)cc3)cc(=O)c2c(OC)c1O`: the TGI in the assay on SK-MEL-28 melanoma, in the assay with NCI-H522 lung, in the assay on SW-620 colon, in the assay with SK-OV-3 ovarian, with LOX IMVI melanoma and with HOP-92 NSCLC was > 100 µM in each case. In addition, the TGI in the assay on SN12C renal, with K-562 leukemia, in the assay with MALME-3M melanoma and in the assay with OVCAR-4 ovarian was > 100 µM each time.

For the compound `COC(=O)[C@H](C)[C@@H]1CC[C@](C)(CCC2=C(C)CCCC2(C)C)OO1`, the TGI with SK-MEL-28 melanoma, with NCI-H522 lung, in the assay with SW-620 colon, in the assay with SK-OV-3 ovarian, in the assay with LOX IMVI melanoma and in the assay on HOP-92 NSCLC was > 25 µM throughout. Further, the TGI in the assay on SN12C renal, in the assay with K-562 leukemia, with MALME-3M melanoma and in the assay on OVCAR-4 ovarian was > 25 µM throughout.

Consider `CC(C)=Cc1cc(C(=O)NCCNC(=O)c2cc(C=C(C)C)nc(NC#N)n2)nc(NC#N)n1`, for which the TGI in the assay with SK-MEL-28 melanoma, in the assay with NCI-H522 lung, with SW-620 colon, in the assay with SK-OV-3 ovarian, in the assay on LOX IMVI melanoma and with HOP-92 NSCLC was > 100 µM throughout. Further, the TGI with SN12C renal, in the assay with K-562 leukemia, in the assay with MALME-3M melanoma and in the assay on OVCAR-4 ovarian was > 100 µM throughout.

For the origin of these results see PubChem BioAssay (NCI).
